Converted amounts (≈) assume the structure as drawn. Where two headings read alike, the source gives them in different places.

One data set concerns murine melanoma (B16). Nature of the data set: In vitro microdilution inhibition, B16. Conditions: Mus musculus; B16, 72 hours, 50% of cells killed. The data set is classed as cell-based. From the text: (§1) As shown in Table III the compounds of the present invention exert an in vitro antitumor effect. The following cells lines were employed: human lung (A549); resistant human lung with low topo II activity (A549-VP); murine melanoma (B16); human colon tumor (HCT116); human colon tumor with elevated p170 levels (HCTVM); human colon tumor with low topo II activity (HCTVP); and another human colon carcinoma cell line (Moser). In the Table, the designation "NT" indicates the compound was not tested against the specified cell line. The cell lines were maintained in continuous culture at 37°, 5% CO2 and high humidity. Cells were harvested in log phase growth and suspended at concentration of 25,000 cells/mL. A […] aliquot was then added to each well (i.e., 3,750 cells per well) of a 96-well flat bottom plate and the cells were allowed to attach over a 24 hour period. After this 24 hour incubation, a 50 μL sample of the specified compound was added to the first (top) well of each column, and the remaining wells of each column serially diluted, 1:4, and allowed to incubate for 72 hours at 37° C., 5% CO2 and high humidity. Following incubation, 50 μL of freshly prepared stain solution was added to each well. After a 3 hour incubation at room temperature, absorbance was read at 450 nm on a microplate reader to determine the compound concentration at which 50% of the cells were killed, such concentration referred to as the "IC50 ".

Data set [1] deals with human colon tumor with low topo II activity (HCTVP). The data set can be described thus: In vitro microdilution inhibition, HCTVP. The data set is classed as cell-based. Conditions: 72 hours, 50% of cells killed.
Source text: as §1
In general terms: Dilution methods test growth across graded concentrations, often in twofold steps.

The subject of another data set is human lung (A549). The data set can be described thus: In vitro microdilution inhibition, human lung A549. As to conditions: A549, 72 hours, 50% of cells killed. The data set is classed as cell-based.
Source text: as §1

The test system of data set [2] is human colon carcinoma cell line (Moser). The data set can be described thus: In vitro microdilution inhibition, Moser. The data set is classed as cell-based. Conditions: 72 hours, 50% of cells killed.
Source text: as §1

The subject of data set [3] is human colon tumor (HCT116). The data set can be described thus: In vitro microdilution inhibition, HCT116. The data set is classed as cell-based. Conditions: HCT-116, 72 hours, 50% of cells killed.
Source text: as §1

The next data set deals with p388 murine leukemia. Nature of the data set: In vivo activity against p388 murine leukemia in an acute mouse model. As to conditions: for AWC (average weight change per mouse): before treatment to day five. As to the method: CDF1 mice of both sexes weighing between 16 and 25 gm. were used, with a 2 gm. weight range and same sex and source used per experiment. BDF1 mice also were used with the same weight, sex and source parameters. Control and test animals were injected interperitoneally with suspension of 1×10^6 p388 murine leukemia cells (0.5 mL dose) on day 0. Groups of 4-6 mice were used for each dosage amount they were treated with 5 doses on day one. A group of ten saline treated control mice was included in each set of experiments. A 30 day protocol was employed with mean survival time in days being determined for each group of mice with the number of survivors at the end of the 30 day period being noted. The mice were weighed before treatment and again on day five. The values listed for average weight change (AWC) is the average weight change per mouse at the specified dose. The change in weight was taken as a measure of drug toxicity. A loss in weight of up to 2 grams is not considered excessive. The results were determined in terms of % T/C which is the ratio of the mean survival time of the treated group to the mean survival time of the saline treated group times 100.

The test system of data set [4] is resistant human lung with low topo II activity (A549-VP). The data set can be described thus: In vitro microdilution inhibition, resistant human lung A549-VP. The data set is classed as cell-based. Conditions: A549VP, 72 hours, 50% of cells killed.
Source text: as §1

The subject of data set [5] is human colon tumor with elevated p170 levels (HCTVM). Nature of the data set: In vitro microdilution inhibition, HCTVM. As to conditions: 72 hours, 50% of cells killed. The data set is classed as cell-based.
Source text: as §1

A further data set concerns L1210 mouse leukemia. Conditions: in vitro; cited from earlier work.
The subject of the next data set is p388 mouse leukemia. As to conditions: in vitro; cited from earlier work.

Regarding `O=C1C=CC(=O)c2c(O)c3c(c(O)c21)C(=O)C1(CCc2cccc(O)c21)C3=O` [Example 3, 2',3'-Dihydro-7'-hydroxy-1H-indene-1'-spiro-2-[4,9-dihydroxy-benz[f]indene-1,3,5,8-tetrone]], the IC50 (as a rule, the concentration needed to halve the response being measured) was 0.88 µg/mL (≈ 2.34 µM) in the data set on murine melanoma (B16); 0.86 µg/mL (≈ 2.29 µM) in data set [1]; 1.14 µg/mL (≈ 3.03 µM) with human lung (A549); 3.07 µg/mL (≈ 8.16 µM) in [2]; 1.13 µg/mL (≈ 3 µM) in [3].

Consider `CCCCCc1cc2cc3c(c(O)c2c(=O)[nH]1)C1(CC3)C(=O)c2c(O)c3c(c(O)c2C1=O)C(=O)C=CC3=O` [Example 8, 2',6',7'-Trihydro-4,9,9'-trihydroxy-3'-(n-pentyl)-spiro[2H-benz[f]-indene-2,8'-[8H]cyclopent[g]isoquinoline]-1,1',3,5,8-pentone], for which the “AWC (average weight change per mouse)” value is 1.0 in the data set on p388 murine leukemia (BDF1 (female only), 5 mg/kg); -1.5 with p388 murine leukemia (BDF1 (female only), 15 mg/kg); -2.8 with p388 murine leukemia (BDF1 (female only), 45 mg/kg). Besides, the response vs control in vivo at 5 mg/kg with p388 murine leukemia (Mus musculus, P388, 720 h, BDF1 (female only), 5 mg/kg, read-out: % T/C (mean survival time treated/control)) was found to be 125%. Further, the response vs control in vivo at 15 mg/kg in the data set with p388 murine leukemia (Mus musculus, P388, 720 h, BDF1 (female only), 15 mg/kg, read-out: % T/C (mean survival time treated/control)) was 135%. Also, the response vs control in vivo at 45 mg/kg in the data set on p388 murine leukemia (Mus musculus, P388, 720 h, BDF1 (female only), 45 mg/kg, read-out: % T/C (mean survival time treated/control)) came out at 145%. Also, the half-inhibitory concentration (IC50) is 18 µg/mL (≈ 35.1 µM) with murine melanoma (B16); 26.5 µg/mL (≈ 51.6 µM) in [4]; 24.5 µg/mL (≈ 47.7 µM) in the data set on human lung (A549); 18.3 µg/mL (≈ 35.6 µM) in data set [2]; 14.5 µg/mL (≈ 28.2 µM) in data set [3].

For the compound `COCOc1cccc2c1C1(CC2)C(=O)c2c(O)c3c(c(O)c2C1=O)C(=O)C=CC3=O` [Example 2, 2',3'-Dihydro-7'-(methoxymethoxy)-1H-indene-1'-spiro-2-[4,9-dihydroxy-2H-benz[f]indene-1,3,5,8-tetrone]], the “AWC (average weight change per mouse)” value with p388 murine leukemia (CDF1 (mixed sex), 5 mg/kg) is recorded as -0.1; in the data set with p388 murine leukemia (CDF1 (mixed sex), 15 mg/kg) it was -1.3. Further, the “% T/C (mean survival time treated/control)” value in the data set with p388 murine leukemia (CDF1 (mixed sex), 45 mg/kg) was “Toxic”. Besides, the response vs control in vivo at 5 mg/kg with p388 murine leukemia (Mus musculus, P388, 720 h, CDF1 (mixed sex), 5 mg/kg, read-out: % T/C (mean survival time treated/control)) worked out at 105%. In the data set on p388 murine leukemia (Mus musculus, P388, 720 h, CDF1 (mixed sex), 15 mg/kg, read-out: % T/C (mean survival time treated/control)), the response vs control in vivo at 15 mg/kg came out at 110%. In addition, the half-inhibitory concentration (IC50) stood at 0.14 µg/mL (≈ 0.333 µM) in the data set with murine melanoma (B16); 0.29 µg/mL (≈ 0.69 µM) in data set [1]; 0.36 µg/mL (≈ 0.856 µM) in the data set with human lung (A549); 1.07 µg/mL (≈ 2.55 µM) in data set [2]; 0.25 µg/mL (≈ 0.595 µM) in data set [3].

Regarding `COCOc1cccc2c1C1(CC2)C(=O)c2c(O)c3c(c(O)c2C1=O)C(=O)C(Nc1cccc(C(=O)O)c1)=CC3=O` (stereo not shown) [Example 20, 2',3'-Dihydro-7'-(methoxymethoxy)-1H-indene-1,-spiro-2-[6-(3-carboxyanilino)-4,9-dihydroxy-2H-benz[f]indene-1,2,5,8-tetrone]], the IC50 (in data set [5]; with murine melanoma (B16); in [4]; in data set [1]; in the data set with human lung (A549); in data set [2]) was more than 16 µg/mL in each case. Moreover, in data set [3], the IC50 was more than 16 µg/mL.

With `C/C=C/C=C/c1cc2cc3c(c(O)c2c(=O)[nH]1)C1(CC3)C(=O)c2c(O)c3c(c(O)c2C1=O)C(=O)C(OC)=CC3=O` (stereo not shown) [fredericamycin A], the cytotoxicity entry was “comparable to doxorubicin and actinomycin” with L1210 mouse leukemia; “comparable to doxorubicin and actinomycin” with p388 mouse leukemia.

For the compound `CCOC(OCC)c1cc2cc3c(c(OCOC)c2c(OC)n1)C1(CC3)C(=O)c2c(O)c3c(c(O)c2C1=O)C(=O)C=CC3=O` [Example 9, 6',7'-Dihydro-1-methoxy-9'-(methoxymethoxy-3-(diethoxymethyl)-spiro[2H-benz[f]indene-2,8'-8H]cyclopent[g]isoquinoline]-1,3,5,8-tetrone], the IC50 came to 0.78 µg/mL (≈ 1.29 µM) in the data set on murine melanoma (B16); 2.38 µg/mL (≈ 3.94 µM) in data set [1]; 4.42 µg/mL (≈ 7.32 µM) in the data set with human lung (A549); 4.4 µg/mL (≈ 7.29 µM) in data set [2]; 0.71 µg/mL (≈ 1.18 µM) in data set [3].

Consider `CCCCCc1cc2cc3c(c(OCOC)c2c(OC)n1)C1(CC3)C(=O)c2c(O)c3c(c(O)c2C1=O)C(=O)C=CC3=O` [Example 7, 6',7'-Dihydro-1-methoxy-9'-(methoxymethoxy)-3'-(n-pentyl)-spiro[2H-benz[f]indene-2,8'-[8H]cyclopent[g]isoquinoline]-1,3,5,8-tetrone], for which the “AWC (average weight change per mouse)” value in the data set with p388 murine leukemia (CDF1 (female only), 5 mg/kg) is given as -2.8; in the data set with p388 murine leukemia (CDF1 (female only), 15 mg/kg), -3.8. For the same compound, the “% T/C (mean survival time treated/control)” value with p388 murine leukemia (CDF1 (female only), 45 mg/kg) is “Toxic”. For the same compound, the response vs control in vivo at 5 mg/kg in the data set on p388 murine leukemia (Mus musculus, P388, 720 h, CDF1 (female only), 5 mg/kg, read-out: % T/C (mean survival time treated/control)) came to 150%. Moreover, the response vs control in vivo at 15 mg/kg in the data set on p388 murine leukemia (Mus musculus, P388, 720 h, CDF1 (female only), 15 mg/kg, read-out: % T/C (mean survival time treated/control)) turned out to be 150%. For the same compound, the IC50 in the data set with murine melanoma (B16) turned out to be 7 µg/mL (≈ 12.2 µM); in data set [4], 8.5 µg/mL (≈ 14.9 µM); in data set [1], 1.2 µg/mL (≈ 2.1 µM); with human lung (A549), 5 µg/mL (≈ 8.75 µM); in [2], 5.9 µg/mL (≈ 10.3 µM); in data set [3], 1.2 µg/mL (≈ 2.1 µM).

Consider `CNC1=CC(=O)c2c(O)c3c(c(O)c2C1=O)C(=O)C1(CCc2cccc(OCOC)c21)C3=O` (stereo not shown) [Example 12, 2',3'-Dihydro-6-methylamino-7'-(methoxymethoxy)-1H-indene-1'-spiro-2-[4,9-dihydroxy-2H-benz[f]-indene-1,3,5,8-tetrone]], for which the IC50 was 0.05 µg/mL (≈ 0.111 µM) in [5]; 0.03 µg/mL (≈ 0.0668 µM) with murine melanoma (B16); 0.05 µg/mL (≈ 0.111 µM) in [4]; 0.03 µg/mL (≈ 0.0668 µM) in [1]; less than 0.03 µg/mL with human lung (A549); 0.03 µg/mL (≈ 0.0668 µM) in data set [2]. For the same compound, the IC50 in data set [3] turned out to be 0.03 µg/mL (≈ 0.0668 µM).

The values above are taken from patent US5166208A, “Fredericamycin A derivatives” (Boston College, priority 1991, dated 1992).
